Publication PMC8426238, “Synthesis and preclinical evaluation of [^11C]MTP38 as a novel PET ligand for phosphodiesterase 7 in the brain” (European Journal of Nuclear Medicine and Molecular Imaging, 2021)

How the values were obtained:
Cannabinoid CB1 = biological target: T1, Cannabinoid CB1 (Homo sapiens, UniProt P21554); test: off-target screen panel; type: binding; conditions: Human recombinant, [^3H]SR141716A
T1 construct: purchased Eurofins Panlabs Discovery Services (Taiwan)

[1] = biological target: T2, Transporter, Norepinephrine (NET) (Homo sapiens, UniProt P23975); test: off-target screen panel; type: binding; conditions: Human recombinant, [^125I]RTI-55
T2 construct: purchased Eurofins Panlabs Discovery Services (Taiwan)

[2] = biological target: T3, Serotonin (5-Hydroxytryptamine) 5-HT1A (Homo sapiens, UniProt P08908); test: off-target screen panel; type: binding; conditions: Human recombinant, [^3H]8-OH-DPAT
T3 construct: purchased Eurofins Panlabs Discovery Services (Taiwan)

Bradykinin B2 = biological target: T4, Bradykinin B2 (Homo sapiens, UniProt P30411); test: off-target screen panel; type: binding; conditions: Human recombinant, [^3H]Bradykinin
T4 construct: purchased Eurofins Panlabs Discovery Services (Taiwan)
T4 sequence (P30411 whole entry): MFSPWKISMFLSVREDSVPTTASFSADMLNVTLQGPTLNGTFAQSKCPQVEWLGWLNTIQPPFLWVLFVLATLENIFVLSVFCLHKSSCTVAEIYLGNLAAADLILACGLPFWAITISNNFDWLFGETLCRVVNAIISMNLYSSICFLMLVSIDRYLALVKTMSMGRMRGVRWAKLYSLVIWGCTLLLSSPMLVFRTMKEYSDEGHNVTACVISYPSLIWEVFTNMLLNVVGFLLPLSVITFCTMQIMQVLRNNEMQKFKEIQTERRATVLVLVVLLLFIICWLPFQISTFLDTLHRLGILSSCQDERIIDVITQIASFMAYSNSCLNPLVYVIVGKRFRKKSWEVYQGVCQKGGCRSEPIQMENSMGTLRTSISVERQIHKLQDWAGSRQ

Muscarinic M3 = biological target: T5, Muscarinic M3 (Homo sapiens, UniProt P20309); test: off-target screen panel; type: binding; conditions: Human recombinant, [^3H]N-Methylscopolamine
T5 construct: purchased Eurofins Panlabs Discovery Services (Taiwan)

Opiate μ (OP3, MOP) = biological target: T6, Opiate μ (OP3, MOP) (Homo sapiens, UniProt P35372); test: off-target screen panel; type: binding; conditions: Human recombinant, [^3H]Diprenorphine
T6 construct: purchased Eurofins Panlabs Discovery Services (Taiwan)

Dopamine D4.2 = biological target: T7, Dopamine D4.2 (Homo sapiens, UniProt P21917, DEL265-296); test: off-target screen panel; type: binding; conditions: Human recombinant, [^3H]Spiperone
T7 construct: purchased Eurofins Panlabs Discovery Services (Taiwan)
T7 sequence (P21917 with tags, fused parts or gaps DEL265-296): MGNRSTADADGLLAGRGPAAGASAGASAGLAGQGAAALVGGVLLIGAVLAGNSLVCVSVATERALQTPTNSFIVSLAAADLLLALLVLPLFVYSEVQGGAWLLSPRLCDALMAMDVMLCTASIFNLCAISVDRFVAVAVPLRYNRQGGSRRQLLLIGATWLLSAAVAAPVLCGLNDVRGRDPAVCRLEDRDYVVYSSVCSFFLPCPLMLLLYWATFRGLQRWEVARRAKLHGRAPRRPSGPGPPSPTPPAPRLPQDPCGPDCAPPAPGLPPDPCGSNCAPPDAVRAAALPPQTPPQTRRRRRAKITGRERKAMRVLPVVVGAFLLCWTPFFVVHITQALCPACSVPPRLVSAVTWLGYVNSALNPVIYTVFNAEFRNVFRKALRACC

Sodium Channel, Site 2 = test: off-target screen panel; type: binding; conditions: Rat brain, [^3H]Batrachotoxinin
Muscarinic M1 = biological target: T8, Muscarinic M1 (Homo sapiens, UniProt P11229); test: off-target screen panel; type: binding; conditions: Human recombinant, [^3H]N-Methylscopolamine
T8 construct: purchased Eurofins Panlabs Discovery Services (Taiwan)
T8 sequence (P11229 whole entry): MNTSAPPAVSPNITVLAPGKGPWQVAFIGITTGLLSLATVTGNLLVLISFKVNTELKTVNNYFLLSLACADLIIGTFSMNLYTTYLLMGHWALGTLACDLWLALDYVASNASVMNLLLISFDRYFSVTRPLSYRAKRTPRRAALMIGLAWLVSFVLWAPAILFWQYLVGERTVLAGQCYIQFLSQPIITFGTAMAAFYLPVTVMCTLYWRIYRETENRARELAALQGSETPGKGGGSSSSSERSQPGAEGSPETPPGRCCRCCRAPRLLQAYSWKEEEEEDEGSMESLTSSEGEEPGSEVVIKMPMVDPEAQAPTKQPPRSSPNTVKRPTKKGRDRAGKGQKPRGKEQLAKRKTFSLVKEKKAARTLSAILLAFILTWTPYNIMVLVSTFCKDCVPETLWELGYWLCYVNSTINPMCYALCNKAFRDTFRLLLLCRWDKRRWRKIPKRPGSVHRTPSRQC

Adrenergic α2A = biological target: T9, Adrenergic α2A (Homo sapiens, UniProt P08913); test: off-target screen panel; type: binding; conditions: Human recombinant, [^3H]Rauwolscine
T9 construct: purchased Eurofins Panlabs Discovery Services (Taiwan)
T9 sequence (P08913 whole entry): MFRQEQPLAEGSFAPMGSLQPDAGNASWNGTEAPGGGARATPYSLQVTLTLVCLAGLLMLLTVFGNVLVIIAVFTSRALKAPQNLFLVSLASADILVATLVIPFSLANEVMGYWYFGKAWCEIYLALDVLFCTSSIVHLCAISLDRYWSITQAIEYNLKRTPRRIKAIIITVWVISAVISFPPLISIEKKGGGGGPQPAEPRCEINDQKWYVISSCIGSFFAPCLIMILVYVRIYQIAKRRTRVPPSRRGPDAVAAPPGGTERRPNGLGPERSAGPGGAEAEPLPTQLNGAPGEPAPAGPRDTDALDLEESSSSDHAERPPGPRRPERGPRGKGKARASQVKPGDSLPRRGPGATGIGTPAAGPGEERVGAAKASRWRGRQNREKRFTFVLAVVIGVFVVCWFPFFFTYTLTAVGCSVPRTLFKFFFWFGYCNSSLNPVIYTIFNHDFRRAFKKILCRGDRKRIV

Nicotinic Acetylcholine = test: off-target screen panel; type: binding; conditions: Human IMR-32 cells, [^125I]Epibatidine
Transporter, GABA = test: off-target screen panel; type: binding; conditions: Rat cerebral cortex, [^3H]GABA
Potassium Channel [KATP] = test: off-target screen panel; type: binding; conditions: Hamster pancreatic HIT-T15 beta cells, [^3H]Glyburide
[3] = biological target: T10, Platelet Activating Factor (PAF) (Homo sapiens, UniProt P25105); test: off-target screen panel; type: binding; conditions: Human platelets, [^3H]PAF
T10 construct: purchased Eurofins Panlabs Discovery Services (Taiwan)
T10 sequence (P25105 whole entry): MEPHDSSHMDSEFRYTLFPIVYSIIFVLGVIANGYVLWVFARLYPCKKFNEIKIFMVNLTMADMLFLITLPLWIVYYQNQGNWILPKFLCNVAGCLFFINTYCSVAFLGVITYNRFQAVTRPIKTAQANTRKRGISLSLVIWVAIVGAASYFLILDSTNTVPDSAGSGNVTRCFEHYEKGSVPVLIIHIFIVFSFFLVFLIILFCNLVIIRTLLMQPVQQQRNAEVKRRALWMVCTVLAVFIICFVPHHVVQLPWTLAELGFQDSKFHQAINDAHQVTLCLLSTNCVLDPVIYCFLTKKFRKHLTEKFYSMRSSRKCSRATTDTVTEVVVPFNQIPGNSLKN

Phorbol Ester = test: off-target screen panel; type: binding; conditions: Mouse brain, [^3H]PDBu
PDE7 = test: In vitro autoradiography of rat brain sections with [^11C]MTP38; type: binding, Sprague-Dawley rats; conditions: [^11C]MTP38 2 nM, unlabeled MTP38 10 μM, MTP-X 4 μM, MT-3014 40 nM
Description: In vitro autoradiography was performed using 20-μm-thick fresh-frozen brain sections derived from Sprague-Dawley rats and rhesus monkeys. The sections were preincubated for 10 min in 50 mM Tris-HCl buffer (pH 7.4) at room temperature. These samples were then incubated for 60 min at room temperature in fresh buffer containing [^11C]MTP38 (2 nM) with or without unlabeled MTP38 (10 μM), MTP-X (4 μM), or MT-3014 (40 nM). The concentrations of MTP-X and MT-3014 were more than 400-fold of reported IC50 values of these agents. After the incubation, the brain sections were immersed twice in cold buffer for 3 min, dipped in cold distilled water for 10 s, and dried with warm airflow. Then the sections were contacted with imaging plates (BAS-MS2025, Fujifilm, Tokyo, Japan) for 60 min. The imaging plates were scanned with an imaging plate reader (BAS5000, Fujifilm, Tokyo, Japan), and the images were analyzed with the MultiGuage software (ver. 3.0, Fujifilm, Tokyo, Japan).

Prostanoid EP4 = biological target: T11, Prostanoid EP4 (Homo sapiens, UniProt P35408); test: off-target screen panel; type: binding; conditions: Human recombinant, [^3H]Prostaglandin E2 (PGE2)
T11 construct: purchased Eurofins Panlabs Discovery Services (Taiwan)
T11 sequence (P35408 whole entry): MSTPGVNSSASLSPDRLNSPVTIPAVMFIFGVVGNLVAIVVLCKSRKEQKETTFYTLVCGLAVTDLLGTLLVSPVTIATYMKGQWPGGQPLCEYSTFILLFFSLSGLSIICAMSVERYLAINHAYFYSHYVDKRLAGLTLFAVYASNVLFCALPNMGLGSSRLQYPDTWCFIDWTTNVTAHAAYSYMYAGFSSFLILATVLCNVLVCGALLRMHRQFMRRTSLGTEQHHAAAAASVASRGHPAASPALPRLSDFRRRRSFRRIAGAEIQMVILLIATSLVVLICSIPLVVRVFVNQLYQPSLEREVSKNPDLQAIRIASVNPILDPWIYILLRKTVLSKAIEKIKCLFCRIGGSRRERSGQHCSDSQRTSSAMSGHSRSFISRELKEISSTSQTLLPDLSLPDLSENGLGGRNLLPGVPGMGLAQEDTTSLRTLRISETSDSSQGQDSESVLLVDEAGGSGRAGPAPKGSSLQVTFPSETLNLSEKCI

67 non-PDE molecules = test: off-target screen panel, overall statement; type: binding; conditions: all 67 non-PDE molecules of the panel
Adenosine A2A = biological target: T12, Adenosine A2A (Homo sapiens, UniProt P29274); test: off-target screen panel; type: binding; conditions: Human recombinant, [^3H]CGS-21680
T12 construct: purchased Eurofins Panlabs Discovery Services (Taiwan)

Calcium Channel N-Type = biological target: T13, Calcium Channel N-Type (Rattus norvegicus, UniProt Q02294); test: off-target screen panel; type: binding; conditions: read-out: Inhibition (%) at 1 μM
T13 construct: purchased Eurofins Panlabs Discovery Services (Taiwan)
T13 sequence (Q02294 whole entry): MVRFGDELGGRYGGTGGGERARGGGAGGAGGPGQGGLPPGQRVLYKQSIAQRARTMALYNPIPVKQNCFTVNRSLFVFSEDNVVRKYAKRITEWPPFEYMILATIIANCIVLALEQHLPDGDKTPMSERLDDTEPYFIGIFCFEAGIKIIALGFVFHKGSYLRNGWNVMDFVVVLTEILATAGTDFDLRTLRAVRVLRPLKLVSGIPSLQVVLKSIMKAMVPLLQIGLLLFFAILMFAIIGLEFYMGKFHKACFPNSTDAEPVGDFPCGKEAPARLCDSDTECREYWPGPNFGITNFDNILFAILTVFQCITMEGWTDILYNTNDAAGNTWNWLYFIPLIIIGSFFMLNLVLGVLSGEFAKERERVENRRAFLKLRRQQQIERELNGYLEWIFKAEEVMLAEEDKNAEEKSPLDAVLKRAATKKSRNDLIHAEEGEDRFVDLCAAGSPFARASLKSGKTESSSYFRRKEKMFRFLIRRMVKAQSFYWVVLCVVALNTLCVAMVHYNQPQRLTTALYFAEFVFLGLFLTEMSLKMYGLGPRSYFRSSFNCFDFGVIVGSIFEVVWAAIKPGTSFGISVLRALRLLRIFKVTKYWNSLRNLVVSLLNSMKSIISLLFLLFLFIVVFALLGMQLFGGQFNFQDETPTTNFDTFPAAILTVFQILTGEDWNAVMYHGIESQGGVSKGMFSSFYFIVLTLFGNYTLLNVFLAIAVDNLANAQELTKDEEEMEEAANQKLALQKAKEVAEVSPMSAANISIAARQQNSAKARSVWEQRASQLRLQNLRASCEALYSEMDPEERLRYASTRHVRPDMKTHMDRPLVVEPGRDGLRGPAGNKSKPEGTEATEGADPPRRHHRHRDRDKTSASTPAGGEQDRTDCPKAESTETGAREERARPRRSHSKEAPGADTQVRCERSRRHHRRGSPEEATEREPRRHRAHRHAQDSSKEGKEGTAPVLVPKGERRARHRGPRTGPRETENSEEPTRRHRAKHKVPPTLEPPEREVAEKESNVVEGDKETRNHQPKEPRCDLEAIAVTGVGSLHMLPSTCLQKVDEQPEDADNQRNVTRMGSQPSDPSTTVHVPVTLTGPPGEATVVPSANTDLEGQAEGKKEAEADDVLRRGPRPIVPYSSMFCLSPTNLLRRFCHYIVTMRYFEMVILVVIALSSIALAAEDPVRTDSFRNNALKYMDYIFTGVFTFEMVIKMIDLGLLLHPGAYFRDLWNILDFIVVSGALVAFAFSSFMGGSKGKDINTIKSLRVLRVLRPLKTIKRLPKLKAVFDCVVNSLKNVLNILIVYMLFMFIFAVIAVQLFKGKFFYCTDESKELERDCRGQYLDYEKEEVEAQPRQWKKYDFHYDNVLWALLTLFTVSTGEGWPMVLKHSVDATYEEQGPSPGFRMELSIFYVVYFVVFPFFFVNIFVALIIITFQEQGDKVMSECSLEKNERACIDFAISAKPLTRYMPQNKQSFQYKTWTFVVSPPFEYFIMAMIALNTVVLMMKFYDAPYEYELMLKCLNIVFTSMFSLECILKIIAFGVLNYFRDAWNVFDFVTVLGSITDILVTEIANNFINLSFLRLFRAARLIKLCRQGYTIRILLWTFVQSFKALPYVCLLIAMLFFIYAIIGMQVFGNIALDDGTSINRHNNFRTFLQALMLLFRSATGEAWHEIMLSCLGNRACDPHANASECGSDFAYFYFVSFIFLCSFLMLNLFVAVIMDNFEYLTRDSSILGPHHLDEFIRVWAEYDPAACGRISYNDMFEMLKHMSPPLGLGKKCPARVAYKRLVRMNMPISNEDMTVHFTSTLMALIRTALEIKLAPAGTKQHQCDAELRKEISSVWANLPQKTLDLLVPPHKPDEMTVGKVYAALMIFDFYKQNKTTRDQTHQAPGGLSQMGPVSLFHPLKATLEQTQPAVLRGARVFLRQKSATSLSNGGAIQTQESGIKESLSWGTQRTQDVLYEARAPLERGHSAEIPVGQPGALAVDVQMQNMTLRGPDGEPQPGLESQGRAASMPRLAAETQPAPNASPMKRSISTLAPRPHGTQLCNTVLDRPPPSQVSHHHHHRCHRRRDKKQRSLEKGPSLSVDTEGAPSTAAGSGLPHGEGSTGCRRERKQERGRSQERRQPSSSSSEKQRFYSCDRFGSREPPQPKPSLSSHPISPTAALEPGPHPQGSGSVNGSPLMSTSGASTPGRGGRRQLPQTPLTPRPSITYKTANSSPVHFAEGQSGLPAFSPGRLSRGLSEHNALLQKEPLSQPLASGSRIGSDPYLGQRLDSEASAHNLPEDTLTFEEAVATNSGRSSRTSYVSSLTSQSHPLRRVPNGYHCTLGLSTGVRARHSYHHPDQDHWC

[4] = system: GABAA, Flunitrazepam, Central; test: off-target screen panel; type: binding; conditions: Rat brain (minus cerebellum), [^3H]Flunitrazepam

C[C@@H]1CC[C@H](C)N(c2nnc3c(N)ncc(C#N)n23)C1 (relative stereo) [MTP38, 8-amino-3-(2S*,5R*-dimethyl-1-piperidyl)-[1,2,4]triazolo[4,3-a]pyrazine-5-carbonitrile]
inhibition at 1 µM (Cannabinoid CB1): -6%
inhibition at 1 µM [1]: 6%
inhibition at 1 µM [2]: -5%
inhibition at 1 µM (Bradykinin B2): 2%
inhibition at 1 µM (Muscarinic M3): -21%
inhibition at 1 µM (Opiate μ (OP3, MOP)): 4%
inhibition at 1 µM (Dopamine D4.2): -3%
Inhibition (%) at 1 μM (Sodium Channel, Site 2): 1%
inhibition at 1 µM (Muscarinic M1): -20%
inhibition at 1 µM (Adrenergic α2A): 4%
Inhibition (%) at 1 μM (Nicotinic Acetylcholine): -8%
Inhibition (%) at 1 μM (Transporter, GABA): -2%
Inhibition (%) at 1 μM (Potassium Channel [KATP]): 5%
inhibition at 1 µM [3]: 4%
Inhibition (%) at 1 μM (Phorbol Ester): -7%
effect of blocker on striatal radioactivity of [^11C]MTP38 (PDE7): reduced the striatal radioactivity
inhibition at 1 µM (Prostanoid EP4): 8%
inhibitions at 1 μM of the 67 non-PDE molecules tested (67 non-PDE molecules): less than 50%
inhibition at 1 µM (Adenosine A2A): 4%
inhibition at 1 µM (Calcium Channel N-Type): 1%
Inhibition (%) at 1 μM [4]: -2%
